The values below come from patent publication US4496543A, “Polypeptides, processes for their production, pharmaceutical compositions comprising said polypeptides and their use” (Sandoz Ltd., priority 1982, dated 1985).

The structures appear in SMILES notation.

This experiment deals with serum GH-level. The experiment can be described thus: TEST I: depression of serum GH-levels in the rat (GH-secretion inhibiting activity). It is filed as in vivo. To be noted: male rats under Nembutal narcosis, s.c., activity at 60 minutes, serum GH by radio-immuno-assay. Here is the method: This test (TEST I) is carried out employing male rats under Nembutal narcosis. The test-substance is administered at varying, logarithmically staggered doses employing at least 4 rats per dose. The rats are decapitated 60 minutes after administration, the blood is collected and the serum GH-level determined by radio-immuno-assay.
The above test may be adapted to determine effectiveness over prolonged periods of time, e.g. by decapitating 6 or 18 hours after administration. "Polypeptides of Type-T" as hereinbefore defined may be shown to be active in the above described test method when administered at dosages in the aforesaid range, over longer periods of time, e.g. up to 18 hours.

Regarding `C[C@H](N)C(=O)NCC(=O)N[C@H]1CSSC[C@@H](C(=O)O)NC(=O)[C@H](CO)NC(=O)[C@H]([C@@H](C)O)NC(=O)[C@H](Cc2ccccc2)NC(=O)[C@H]([C@@H](C)O)NC(=O)[C@H](CCCCN)NC(=O)[C@H](Cc2c[nH]c3ccccc23)NC(=O)[C@H](Cc2ccccc2)NC(=O)[C@H](Cc2ccccc2)NC(=O)[C@H](CC(N)=O)NC(=O)[C@H](CCCCN)NC1=O` [somatostatin], the “ID50 in TEST I (amount of compound required to effect 50% reduction of the GH-level compared with untreated controls)” value was determined as 93 µg/kg.
